From patent US6080542A, “Plant peptide transport gene” (priority 1997, dated 2000)
Where a SMILES comes first, the peptide text is derived from it. Where no end group is shown, it is not given here. Eth = ethionine

Tests used:
[1] = system: PB1X-9B (pJP9); assay: Growth on peptides, mutant transformed with yeast peptide transport gene; type: cell-based, Saccharomyces cerevisiae; conditions: for growth on peptide: PBIX-9B (pJP9), 80 μM peptide in SC medium, 30° C., 72 hrs; for growth on peptide (in words): PB1X-9B transformed with pJP9
Procedure: (§1) In addition, untransformed PB1X-9B, PB1X-9B transformed with plasmid pJP9 encoding the above-described yeast peptide transport gene, PB1X-2AΔ and PB1X-2A, the ptr2^+ parental strain to PB1X-2AΔ strain, were also assayed. Each strain was grown overnight in SC media plus uracil (non-transformed) or minus uracil (transformed) plus amino acids to stationary phase and harvested by centrifugation. Cells were then washed twice with sterile dH2 O and resuspended at 5×10^6 cells/ml. 5 μl of each suspension was applied as a small spot to a 2 ml volume of solid media in a 24 well plate. All peptides were suspended in sterile, deionized water and added to an equal volume of SC medium plus the appropriate amino acids and uracil when required. The medium for each assay thus consisted of SC medium plus or minus uracil supplemented with 80 μM of a specific peptide and auxotrophic requirements minus the amino acid components of the added peptide. The plates were incubated at 30° C. for 72 hrs. and then scored for growth.

[2] = system: PB1X-9B; assay: Growth on peptides as amino acid source, peptide transport mutant; type: cell-based, Saccharomyces cerevisiae; conditions: PBIX-9B; 80 μM peptide in SC medium, 30° C., 72 hrs
Procedure: as §1

[3] = system: PB1X-9B (pPTF4); assay: Growth on peptides, mutant transformed with plant gene ATPTR2A; type: cell-based, Saccharomyces cerevisiae; conditions: PBIX-9B (pPTF4); 80 μM peptide in SC medium, 30° C., 72 hrs
Procedure: as §1

[4] = system: ATPTR2Ap; assay: Uptake of L-leucyl-L-[3H]leucine and competition, PB1X-9B[pPTF4]
Procedure: The kinetics of ATPTR2A-mediated transport of peptides in yeast was evaluated by transforming pPTF4 into the S. cerevisiae peptide transport mutant, PB1X-9B and measuring the uptake of tritiated Leu-Leu dipeptide.
L-leucyl-L [^3 H]leucine trifluoroacetic acid (TFA) was synthesized by standard solution phase techniques (Naider, F. et al., J. Biol. Chem. 249:9-20 (1974)). Uptake of L-leucyl-L-[H]leucine was performed as by Island, M. D. et al (J. Bacteriol. 169:2132-2136 (1987)), with the following modifications. Cells were grown to late log phase (26×10^7 cells/ml) overnight in SC with 2% glucose, 1 mg/ml allantoin plus amino acids to supplement auxotrophic markers. To induce peptide transport. 5-15 ml from this culture was added to 100 ml fresh medium such that the density was 3.0×10^6 cells/ml. This culture was allowed to grow (approx. 2 hrs.) to a density of 6.0×10^6 cells/ml and then harvested by centrifugation. The pelleted cells were washed twice with 10 ml cold dH2 O and suspended in cold 2% glucose to a final concentration of 2×10^8 cells/ml and incubated at 30° C. for 15 min. 500 μl of cells were then added to an equal volume of reaction mixture (30° C.) and incubated at 30°-C. At 20, 40, 60, 90, and 120 sec. intervals, 190 μl portions were removed, filtered over filters (pore size, 0.45 μm; GN-6; Gelman Sciences, Inc., Ann Arbor, Mich.) and washed 2 times with 5 ml cold, sterile dH2 O and once with 5 ml dH2 O at room temperatures. Filters were placed in scintillation vials with 5 ml of Budget-Solve scintillation cocktail (Research Products International Corp., Mount Prospect, Ill.) and counted (liquid scintillation counter; LS-7000; Beckman Instruments, Inc., Fullerton, Calif.). The final concentration of the components in the uptake assay was 1% glucose, 40 mM sodium citrate-potassium phosphate buffer (pH 5.5), and 1.5×105 M L-leucyl-L-[^3 H]leucine (specific activity, 10 mCi/mmole). Uptake is expressed as nanomoles per mg dry weight.

[5] = system: A. thaliana seedlings; assay: Root assay, toxic peptide plus competitor peptide; type: in vivo, Arabidopsis thaliana
Procedure: Approximately 15 A. thaliana seeds were placed in a row at one end of 10 cm plate containing 20 ml of Arabidopsis growth media (Kranz and Kirchheim 1987). The seeds were incubated 3-5 days in the light with the plate set in an upright position. When the roots were approximately 1-2 cm long, sterile paper filter disks were placed immediately in front of the root tips on the right and left side of the plate 2 cm from the edge of the plate. A line was drawn across the plate using the top of the disks as a guide marking zero growth. 5 μl of toxic amino acid analog, toxic peptide, or toxic peptide plus competitor was added to one disk while H2 O was place on the other disk. The plates were incubated for an additional 3-5 days. The average length of the roots was measured from the line and the results expressed as a percentage of control root growth.

[6] = system: A. thaliana seeds; assay: Seed germination with toxic peptides (minimum inhibitory concentration); type: in vivo, Arabidopsis thaliana; conditions: seeds exposed to the toxic compound
Procedure: Thus, A. thaliana seeds and seedlings were exposed to Ethionine, Ala-Eth, Leu-Eth, Leu-fluorophenylalanine or oxalysine containing peptides, and the minimum inhibitory concentrations (MIC) were determined for each of the toxic compounds.
To measure the minimum inhibitory concentration of the toxic peptides, 10 to 15 A. thaliara seeds were place on solid Arabidopsis growth media with decreasing concentrations of toxic peptide. The seeds were incubated for 4 days in the dark and then scored for germination.

[7] = system: PB1X-2AΔ (pDTF1); assay: Growth on peptides, deletion strain transformed with ATPTR2B; type: cell-based, Saccharomyces cerevisiae; parameters: key: +: Growth was scored as uniform colony formation; -: negative controls which showed no growth; conditions: PBIX-2AΔ (pDTF1); 80 μM peptide in SC medium, 30° C., 72 hrs
Procedure: as §1, with “Thus, the peptide transport mutant PB1X-9B and deletion strain PB1X-2AΔ transformed with plasmids pPTF4 (ATPTR2A) or pDTF1 (ATPTR2B) were grown on various peptides to assess the specificity of the plant peptide transporter. In” for “In”

[8] = system: S288C; assay: Toxic peptide disk assay, wild type; type: cell-based, Saccharomyces cerevisiae; conditions: disk with 0.38 μmoles, lawn of 5×10^6 cells, 30° C., 1 to 2 days, mean ± standard error
Procedure: (§2) Since ptr mutants are deficient in peptide transport, they are unable to take up toxic peptides. This inability renders such mutants resistant to the toxic effect of the peptides. In order to determine whether the polynucleotides of the present invention could restore toxic peptide sensitivity to ptr2 mutants, the sensitivity of plasmid-transformed cells was determined. Sensitivity to toxic amino acids and peptides was measured as described by Island, M. D. et al. (J. Bacteriol. 169:2132-2136 (1987)). Briefly, a filter disk containing 0.38 μmoles of the toxic compound was placed on a lawn containing 5×10^6 cells and the plate incubated at 30° C. for 1 to 2 days. Resulting halos were measured across their diameter. The toxic dipeptides Leu-Eth, Ala-Eth, Leu-F-Phe and Oxalysine were synthesized by standard solution phase techniques (Naider, F. et al., J. Biol. Chem. 249:9-20 (1974). The results of this experiment are shown in Table 2 (values are the mean of the diameters of the observed zone of inhibition in millimeters±standard error of the mean of at least two independent experiments).

[9] = system: S. cerevisiae strains tested; assay: Toxic peptide disk assay, statements covering several strains; type: cell-based, Saccharomyces cerevisiae; conditions: for sensitivity to toxic peptide: all strains tested
Procedure: as §2

[10] = system: PB1X-9B (pJP9); assay: Toxic peptide disk assay, mutant with yeast peptide transport gene; type: cell-based, Saccharomyces cerevisiae; conditions: disk with 0.38 μmoles, lawn of 5×10^6 cells, 30° C., 1 to 2 days, mean ± standard error
Procedure: as §2

[11] = system: PB1X-9B (pPTF4); assay: Toxic peptide disk assay, mutant with plant gene ATPTR2A; type: cell-based, Saccharomyces cerevisiae; conditions: for diameter of zone of inhibition: disk with 0.38 μmoles, lawn of 5×10^6 cells, 30° C., 1 to 2 days, mean ± standard error
Procedure: as §2

[12] = system: PB1X-9B; assay: Toxic peptide disk assay, peptide transport mutant; type: cell-based, Saccharomyces cerevisiae; conditions: for diameter of zone of inhibition: disk with 0.38 μmoles, lawn of 5×10^6 cells, 30° C., 1 to 2 days, mean ± standard error
Procedure: as §2

[13] = PB1X-9B[pPTF4], pH 5.5, dileucine and leucine at 100-fold

Compound: CC(C)C[C@H](NC(=O)[C@@H](N)Cc1c[nH]cn1)C(=O)O [His-Leu] (H-His-Leu-OH)
- growth on peptide [1]: +
- growth on peptide [2]: -
- growth on peptide [3]: +

Compound: CC(C)C[C@H](NC(=O)[C@@H](N)CC(C)C)C(=O)O [Leu-Leu, L-leucyl-L-leucine]
- growth on peptide [1]: +
- growth on peptide [2]: -
- growth on peptide [3]: +
- competition for uptake of [3H]-dileucine [4, 13]: inhibited

Compound: CC(C)C[C@H](NC(=O)[C@@H](N)CCCCN)C(=O)O [Lys-Leu, L-lysyl-L-leucine] (H-Lys-Leu-OH)
- growth on peptide [1]: +
- growth on peptide [2]: -
- growth on peptide [3]: +

Compound: CSCC[C@H](N)C(=O)O [Met]
- reversal of toxicity by competitor (in words) ([5]; toxic peptide Ala-Eth): unable to reverse the inhibition
- root growth with toxic peptide plus competitor ([5]; toxic peptide Ala-Eth): 0 percentage of control root gro
- reversal of toxicity by competitor (in words) ([5]; toxic peptide Leu-Eth): unable to reverse the inhibition
- root growth with toxic peptide plus competitor ([5]; toxic peptide Leu-Eth): 0 percentage of control root gro

Compound: NCCOC[C@H](N)C(=O)O [Oxa-Lys, oxalysine]
- root length at which growth was arrested [6]: 1-2 mm

Compound: CC(C)C[C@H](N)C(=O)O [leucine]
- competition for uptake of [3H]-dileucine ([4]; 3 h): no effect
- competition for uptake of [3H]-dileucine [4, 13]: did not reduce uptake

Compound: Ala-Ala-Leu: tripeptide growth substrate (AAL)
- growth on peptide [1]: +
- growth on peptide [2]: -
- growth on peptide [3]: +

Compound: Gly-Leu-Gly-Leu: SEQ ID NO:6 (GLGL)
- growth on peptide (in words) [1]: showed growth on all peptides except
- growth on peptide [1]: -
- growth on peptide [2]: -
- growth on peptide [3]: -

Compound: Lys-Ala-Ala: tripeptide growth substrate (KAA)
- growth on peptide [1]: +
- growth on peptide [7]: +
- growth on peptide [2]: -
- growth on peptide [3]: +

Compound: Lys-Leu-Ala-Eth: ethionine-containing peptide of four residues
- diameter of zone of inhibition [8]: 0 millimeters
- sensitivity to toxic peptide [9]: None of the strains tested were sensitive
- diameter of zone of inhibition [10]: 0 millimeters
- diameter of zone of inhibition [11]: 0 millimeters
- diameter of zone of inhibition [12]: 0 millimeters

Compound: Lys-Leu-Leu-Ala-Eth: ethionine-containing peptide, SEQ ID NO:13 (KLLA-Eth)
- diameter of zone of inhibition [8]: 0 millimeters
- sensitivity to toxic peptide [9]: None of the strains tested were sensitive
- diameter of zone of inhibition [10]: 0 millimeters
- diameter of zone of inhibition [11]: 0 millimeters
- diameter of zone of inhibition [12]: 0 millimeters

Compound: Lys-Leu-Leu-Eth: ethionine-containing peptide of four residues
- diameter of zone of inhibition [8]: 0 millimeters
- sensitivity to toxic peptide [9]: None of the strains tested were sensitive
- diameter of zone of inhibition [10]: 0 millimeters
- diameter of zone of inhibition [11]: 0 millimeters
- diameter of zone of inhibition [12]: 0 millimeters

Compound: Lys-Leu-Leu-Leu-Eth: ethionine-containing peptide, SEQ ID NO:14 (KLLL-Eth)
- diameter of zone of inhibition [8]: 0 millimeters
- sensitivity to toxic peptide [9]: None of the strains tested were sensitive
- diameter of zone of inhibition [10]: 0 millimeters
- diameter of zone of inhibition [11]: 0 millimeters
- diameter of zone of inhibition [12]: 0 millimeters

Compound: Thr-Pro-Arg-Lys: SEQ ID NO:7 (TPRK)
- growth on peptide (in words) [1]: showed growth on all peptides except
- growth on peptide [1]: -
- growth on peptide [7]: -
- growth on peptide [2]: -
- growth on peptide [3]: -

Compound: Trp-His-Trp-Leu-Gln-Leu: SEQ ID NO:9 (WHWLQL)
- growth on peptide (in words) [1]: showed growth on all peptides except
- growth on peptide [1]: -
- growth on peptide [7]: -
- growth on peptide [2]: -
- growth on peptide [3]: -

Compound: fluorophenylalanine [F-Phe]
- diameter of zone of inhibition [8]: 25.0 ± 4.0 millimeters
- sensitivity to toxic compound ([9]; wild type (S288C) and transformants): less sensitive
- diameter of zone of inhibition [10]: 20.0 ± 0.0 millimeters
- sensitivity or resistance to toxic compound [11]: sensitive
- diameter of zone of inhibition [11]: 19.5 ± 0.5 millimeters
- sensitivity or resistance to toxic compound [12]: sensitive
- diameter of zone of inhibition [12]: 14.0 ± 1.0 millimeters

Compound: tetra-Lys: SEQ ID NO:5 (KKKK)
- growth on peptide (in words) [1]: showed growth on all peptides except
- growth on peptide [1]: -
- growth on peptide [7]: -
- growth on peptide [2]: -
- growth on peptide [3]: -
